Assay results taken from ChEMBL document CHEMBL1201862, “PubChem BioAssay data set” (2004).
Counter-ions that a name gives are not always drawn.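 Assay format: 96-well plates, 48-hour exposure. GI50 = concentration required for 50% inhibition of growth.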 Activity calls are given as the source filed them. No stated cut-off is given here; in the data, active = GI50 up to about 1.1 µM and inactive = higher.

How the values were obtained:
Assay in all cases: NCI anticancer screen, dose series, 48 h
ACHN = test system: ACHN
CAKI-1 = test system: CAKI-1
DU-145 = test system: DU-145
HCC 2998 = test system: HCC 2998
HCT-15 = test system: HCT-15
HOP-92 = test system: HOP-92
IGROV-1 = test system: IGROV-1
MDA-MB-231 = test system: MDA-MB-231
MDA-MB-435 = test system: MDA-MB-435
Malme-3M = test system: Malme-3M
NCI-H460 = test system: NCI-H460
OVCAR-5 = test system: OVCAR-5
RXF 393 = test system: RXF 393
SF-539 = test system: SF-539
SK-OV-3 = test system: SK-OV-3
SNB-19 = test system: SNB-19
SNB-75 = test system: SNB-75
T47D = test system: T47D
U-251 = test system: U-251
UO-31 = test system: UO-31

Row | SMILES | GI50 (ACHN) | GI50 (CAKI-1) | GI50 (DU-145) | GI50 (HCC 2998) | GI50 (HCT-15) | GI50 (HOP-92) | GI50 (IGROV-1) | GI50 (MDA-MB-231) | GI50 (MDA-MB-435) | GI50 (Malme-3M) | GI50 (NCI-H460) | GI50 (OVCAR-5) | GI50 (RXF 393) | GI50 (SF-539) | GI50 (SK-OV-3) | GI50 (SNB-19) | GI50 (SNB-75) | GI50 (T47D) | GI50 (U-251) | GI50 (UO-31)
1 | FC(F)(F)c1ccc2nc(Sc3ccc4ccccc4c3)cnc2c1 | > 100 µM (inactive) | 50.2 µM (inactive) | > 100 µM (inactive) | 52 µM (inactive) | 44.7 µM | > 100 µM (inactive) | > 100 µM (inactive) | 62.7 µM (inactive) | 55.2 µM (inactive) | > 100 µM (inactive) | 73.1 µM (inactive) | > 100 µM (inactive) | 21.9 µM (inactive) | 36.3 µM (inactive) | > 100 µM (inactive) | > 100 µM (inactive) | > 100 µM (inactive) | 23.1 µM (inactive) | 25.2 µM (inactive) | > 100 µM (inactive)
2 | CCOP(=O)(OCC)C(F)(F)CC1CCCCC1 | > 10 µM (inactive) | > 10 µM (inactive) | > 10 µM (inactive) | > 10 µM (inactive) | > 10 µM | > 10 µM (inactive) | > 10 µM (inactive) | > 10 µM (inactive) | > 10 µM (inactive) | > 10 µM (inactive) | > 10 µM (inactive) | > 10 µM (inactive) | > 10 µM (inactive) | > 10 µM (inactive) | > 10 µM (inactive) | > 10 µM (inactive) | 4.38 µM (inactive) | > 10 µM (inactive) | > 10 µM (inactive) | > 10 µM (inactive)
3 | OC(CNc1ccccn1)c1ccccc1 (stereo not given) [PHENYRAMIDOL HYDROCHLORIDE] | > 100 µM (inactive) | > 100 µM (inactive) | > 100 µM (inactive) | > 100 µM (inactive) | > 100 µM | > 100 µM (inactive) | > 100 µM (inactive) | > 100 µM (inactive) | > 100 µM (inactive) | > 100 µM (inactive) | > 100 µM (inactive) | > 100 µM (inactive) | > 100 µM (inactive) | > 100 µM (inactive) | > 100 µM (inactive) | > 100 µM (inactive) | > 100 µM (inactive) | > 100 µM (inactive) | 67.6 µM (inactive) | > 100 µM (inactive)
4 | CN(C)CCS/C(=N\c1ccccc1)N1C=COC=C1 | 34.1 µM (inactive) | > 33.3 µM (inactive) | 75.9 µM (inactive) | 24.7 µM (inactive) | 20.5 µM | 26.2 µM (inactive) | 18 µM (inactive) | 20.9 µM (inactive) | 18.9 µM (inactive) | 33.7 µM (inactive) | > 68.5 µM (inactive) | > 66.5 µM (inactive) | 26.7 µM (inactive) | 29.2 µM (inactive) | > 100 µM (inactive) | > 100 µM (inactive) | > 78.7 µM (inactive) | 15.3 µM (inactive) | 48 µM (inactive) | 57.3 µM (inactive)
5 | NC1=CN(CCCO)C2=N/C(=C\c3ccccc3)C(=O)N12 | > 100 µM (inactive) | > 100 µM (inactive) | > 100 µM (inactive) | > 100 µM (inactive) | > 100 µM | > 100 µM (inactive) | > 100 µM (inactive) | > 100 µM (inactive) | > 100 µM (inactive) | > 100 µM (inactive) | > 100 µM (inactive) | > 100 µM (inactive) | > 100 µM (inactive) | > 100 µM (inactive) | > 100 µM (inactive) | > 100 µM (inactive) | > 100 µM (inactive) | > 100 µM (inactive) | > 100 µM (inactive) | > 100 µM (inactive)
6 | C[C@@]12C=CC3C/C(=N\C(N)=S)C=C(CCCC4OCCO4)[C@]3(CC1)C2 (stereo not given in full) | 28.6 µM (inactive) | 25.1 µM (inactive) | 21 µM (inactive) | 15.1 µM (inactive) | 17.7 µM | 34.4 µM (inactive) | 14.8 µM (inactive) | 20.3 µM (inactive) | 16.9 µM (inactive) | 18.4 µM (inactive) | 15.6 µM (inactive) | 15.7 µM (inactive) | 16 µM (inactive) | 17.9 µM (inactive) | 49.2 µM (inactive) | 34.5 µM (inactive) | 28.6 µM (inactive) | 22.1 µM (inactive) | 20.5 µM (inactive) | 17.6 µM (inactive)
7 | C[C@]12CCC3C4=C(CCC3C1CCC2=O)C(=O)[C@H]1O[C@H]1C4=O (stereo not given in full) | 2.57 µM (inactive) | 0.275 µM (active) | 3.12 µM (inactive) | 1.9 µM (inactive) | 1.36 µM | 7.67 µM (inactive) | 2.24 µM (inactive) | 1.8 µM (inactive) | 11.8 µM (inactive) | 21.6 µM (inactive) | 7.46 µM (inactive) | 3.77 µM (inactive) | 1.6 µM (inactive) | 1.92 µM (inactive) | 13.9 µM (inactive) | 15.6 µM (inactive) | 3.23 µM (inactive) | 0.61 µM (active) | 2.75 µM (inactive) | 2.31 µM (inactive)
8 | NCCCCNCCCNC(=O)CNC(=O)CC(O)C(N)CCCC(NC(=O)C(CN)NC(=O)C(O)CNC(=O)CC(N)c1ccc(O)cc1)C(=O)O (stereo not given) | > 10 µM (inactive) | > 10 µM (inactive) | > 10 µM (inactive) | > 10 µM (inactive) | > 10 µM | > 10 µM (inactive) | > 10 µM (inactive) | > 10 µM (inactive) | > 10 µM (inactive) | > 10 µM (inactive) | > 10 µM (inactive) | > 10 µM (inactive) | > 10 µM (inactive) | > 10 µM (inactive) | > 10 µM (inactive) | > 10 µM (inactive) | > 10 µM (inactive) | > 10 µM (inactive) | > 10 µM (inactive) | > 10 µM (inactive)
9 | CC(=O)OCc1ccc2oc(=O)c(C(=O)Oc3cccc(Cl)c3)cc2c1 | 38.2 µM (inactive) | 42.9 µM (inactive) | > 100 µM (inactive) | 19.4 µM (inactive) | 35.5 µM | 20.6 µM (inactive) | 63.5 µM (inactive) | 32.4 µM (inactive) | 64.4 µM (inactive) | > 100 µM (inactive) | 37.9 µM (inactive) | > 100 µM (inactive) | 33.7 µM (inactive) | 46.2 µM (inactive) | > 100 µM (inactive) | 83 µM (inactive) | 37.8 µM (inactive) | 20.6 µM (inactive) | > 100 µM (inactive) | 22.1 µM (inactive)
10 | COc1ccc(C(F)(F)F)cc1NC(=O)O/N=C(/Cl)C(C)C | 10.5 µM (inactive) | 1.77 µM (inactive) | 19.2 µM (inactive) | 19.9 µM (inactive) | 5.18 µM | 7.33 µM (inactive) | 17.9 µM (inactive) | 19.4 µM (inactive) | 20.8 µM (inactive) | 9.62 µM (inactive) | 37.6 µM (inactive) | 20.6 µM (inactive) | 19.6 µM (inactive) | 18.3 µM (inactive) | > 47.5 µM (inactive) | 18.7 µM (inactive) | 16.8 µM (inactive) | 20 µM (inactive) | 26.4 µM (inactive) | 18.5 µM (inactive)
